SMILES strings stand for the structures.

What all share (type): in vivo
In assay [1] the test system is Amaranthus retroflexus (AMARE). Nature of the assay: Pre-emergence biological efficacy, glasshouse pot test. The following applies: 312 h, after 13 days, 100=total damage, 0=no damage, read-out: Percentage damage caused to weed species AMARE. As for the experimental part: (§1) Seeds of Alopecurus myosuroides (ALOMY), Setaria faberi (SETFA), Echinochloa crus-galli (ECHCG), Solanum nigrum (SOLNI), Amaranthus retroflexus (AMARE) and Ipomea hederaceae (IPOHE) were sown in standard soil in pots. After cultivation for one day under controlled conditions in a glasshouse (at 24/16° C., day/night; 14 hours light; 65% humidity), the plants were sprayed with an aqueous spray solution derived from the formulation of the technical active ingredient in acetone/water (50:50) solution containing 0.5% Tween 20 (polyoxyethylene sorbitan monolaurate, CAS RN 9005-64-5) to give a final dose of 250 or 1000 g/ha of test compound.
(§2) The test plants were then grown under controlled conditions in the glasshouse (at 24/16° C., day/night; 14 hours light; 65% humidity) and watered twice daily. After 13 days the test was evaluated (100=total damage to plant; 0=no damage to plant).

In assay [2] the test system is Echinochloa crus-galli (ECHCG). Described as above. As to conditions: 312 h, after 13 days, 100=total damage, 0=no damage, read-out: Percentage damage caused to weed species ECHCG. As for the experimental part:
as §1, §2

For assay [3], the system named is Setaria faberi (SETFA). The description is as above. As to conditions: 312 h, after 13 days, 100=total damage, 0=no damage, read-out: Percentage damage caused to weed species SETFA. As for the experimental part:
as §1, §2

Assay [4] has as its system Alopecurus myosuroides (ALOMY). The assay is described as above. The following applies: 312 h, after 13 days, 100=total damage, 0=no damage, read-out: Percentage damage caused to weed species ALOMY. As for the experimental part: as §1, §2
The subject of assay [5] is Ipomea hederaceae (IPOHE). The description is as above. As to conditions: Ipomoea hederacea, 312 h, after 13 days, 100=total damage, 0=no damage, read-out: Percentage damage caused to weed species IPOHE. As for the experimental part:
as §1, §2

The subject of assay [6] is Solanum nigrum (SOLNI). The assay is described as above. As to conditions: 312 h, after 13 days, 100=total damage, 0=no damage, read-out: Percentage damage caused to weed species SOLNI. As for the experimental part:
as §1, §2

Assay [7] deals with Amaranthus retroflexus (AMARE). Nature of the assay: Post-emergence biological efficacy, glasshouse pot test. The following applies: 312 h, after 13 days, 100=total damage, 0=no damage, read-out: Percentage damage caused to weed species AMARE. As for the experimental part: as §1, with “8 days” for “one day”
(§3) The test plants were then grown on under controlled conditions in a glasshouse (at 24/16° C., day/night; 14 hours light; 65% humidity) and watered twice daily. After 13 days the test was evaluated (100=total damage to plant; 0=no damage to plant).

The test system of assay [8] is Echinochloa crus-galli (ECHCG). Described as above. As to conditions: 312 h, after 13 days, 100=total damage, 0=no damage, read-out: Percentage damage caused to weed species ECHCG. As for the experimental part: as §1, with “8 days” for “one day”
as §3

The test system of assay [9] is Setaria faberi (SETFA). The description is as above. As to conditions: 312 h, after 13 days, 100=total damage, 0=no damage, read-out: Percentage damage caused to weed species SETFA. As for the experimental part: as §1, with “8 days” for “one day”
as §3

The subject of assay [10] is Alopecurus myosuroides (ALOMY). The assay is described as above. The following applies: 312 h, after 13 days, 100=total damage, 0=no damage, read-out: Percentage damage caused to weed species ALOMY. As for the experimental part: as §1, with “8 days” for “one day”
as §3

Assay [11] relates to Ipomea hederaceae (IPOHE). The description is as above. The following applies: Ipomoea hederacea, 312 h, after 13 days, 100=total damage, 0=no damage, read-out: Percentage damage caused to weed species IPONE. As for the experimental part:
as §1, with “8 days” for “one day”
as §3

Assay [12] deals with Solanum nigrum (SOLNI). The description is as above. As to conditions: 312 h, after 13 days, 100=total damage, 0=no damage, read-out: Percentage damage caused to weed species SOLNI. As for the experimental part:
as §1, with “8 days” for “one day”
as §3

In the case of `COC(=O)c1nc(-c2ccsc2Cl)nc(N)c1Cl` [Compound 2-18, 4-Amino-5-chloro-2-(2-chlorothiophen-3-yl)-6-methoxycarbonyl pyrimidine], the pest or weed control at 250 g/ha (in assay [1]; in assay [2]; with Setaria faberi (SETFA) [3]; in [4]; in [5]; in the assay with Solanum nigrum (SOLNI) [6]) was 0% each time. Besides, the pest or weed control at 250 g/ha in assay [7] came out at 20%; in [8] it was 10%; in the assay on Setaria faberi (SETFA) [9], 10%; in assay [10], 10%; in assay [11], 40%; with Solanum nigrum (SOLNI) [12] it was 0%.
As to `COC(=O)c1nc(-c2cc(Cl)sc2Cl)nc(N)c1Cl` [Compound 2-19, 4-Amino-5-chloro-2-(2,5-dichlorothiophen-3-yl)-6-methoxycarbonyl pyrimidine], the pest or weed control at 1000 g/ha in assay [1] amounted to 20%; in [2], 0%; with Setaria faberi (SETFA) [3], 0%; in assay [4], 0%; in assay [5], 30%; in the assay with Solanum nigrum (SOLNI) [6], 20%. Further, the pest or weed control at 1000 g/ha in assay [7] was determined as 100%; in assay [8], 10%; with Setaria faberi (SETFA) [9] it was 30%; in assay [10], 0%; in assay [11], 70%; in the assay with Solanum nigrum (SOLNI) [12], 70%.
Take `COC(=O)c1nc(-c2ccoc2)nc(N)c1Cl` [Compound 2-34, 4-Amino-5-chloro-2-(furan-3-yl)-6-methoxycarbonyl pyrimidine]: the pest or weed control at 1000 g/ha (in [1]; in assay [2]; with Setaria faberi (SETFA) [3]; in assay [4]; in assay [5]; in the assay on Solanum nigrum (SOLNI) [6]) was 0% each time. Moreover, the pest or weed control at 1000 g/ha in [7] was found to be 30%; in assay [8], 0%; in the assay with Setaria faberi (SETFA) [9], 0%; in assay [10] it was 10%; in assay [11], 50%; with Solanum nigrum (SOLNI) [12], 10%.
Turning to `COC(=O)c1nc(-c2cc3ccccc3s2)nc(N)c1Cl` [Compound 2-54, 4-Amino-2-(benzothiophen-2-yl)-5-chloro-6-methoxycarbonyl pyrimidine], the pest or weed control at 1000 g/ha in assay [1] stood at 70%; in [2] it was 70%; with Setaria faberi (SETFA) [3], 20%; in assay [4], 20%; in [5], 0%; in the assay on Solanum nigrum (SOLNI) [6], 20%. Further, the pest or weed control at 1000 g/ha worked out at 70% in assay [7]; 70% in [8]; 50% in the assay on Setaria faberi (SETFA) [9]; 0% in [10]; 80% in [11]; 40% in the assay with Solanum nigrum (SOLNI) [12].
Regarding `COC(=O)c1nc(-c2cc3cc(C)ccc3s2)nc(N)c1Cl` [Compound 2-55, 4-Amino-5-chloro-6-methoxycarbonyl-2-(5-methylbenzothiophen-2-yl)-pyrimidine], the pest or weed control at 250 g/ha in [1] stood at 10%; in assay [2], 0%; with Setaria faberi (SETFA) [3], 0%; in [4], 0%; in assay [5] it was 10%; in the assay on Solanum nigrum (SOLNI) [6], 0%. Also, the pest or weed control at 250 g/ha turned out to be 70% in assay [7]; 0% in assay [8]; 0% in the assay on Setaria faberi (SETFA) [9]; 10% in [10]; 40% in [11]; 30% in the assay on Solanum nigrum (SOLNI) [12].
For `COC(=O)c1nc(-c2csc3ccccc23)nc(N)c1Cl` [Compound 2-56, 4-Amino-2-(benzothiophen-3-yl)-5-chloro-6-methoxycarbonyl pyrimidine], the pest or weed control at 1000 g/ha turned out to be 60% in [1]; 0% in assay [2]; 0% in the assay with Setaria faberi (SETFA) [3]; 0% in assay [4]; 0% in assay [5]; 0% in the assay with Solanum nigrum (SOLNI) [6]. Also, the pest or weed control at 1000 g/ha is 100% in assay [7]; 40% in assay [8]; 10% in the assay on Setaria faberi (SETFA) [9]; 20% in assay [10]; 20% in assay [11]; 40% with Solanum nigrum (SOLNI) [12].
As to `COC(=O)c1nc(-c2csc3ccc(C)cc23)nc(N)c1Cl` [Compound 2-57, 4-amino-5-chloro-6-methoxycarbonyl-2-(5-methylbenz-[b]thiophen-3-yl)-pyrimidine], the pest or weed control at 1000 g/ha (in assay [1]; in assay [2]; in the assay on Setaria faberi (SETFA) [3]; in assay [4]; in [5]; in the assay with Solanum nigrum (SOLNI) [6]) was 0% in each case. Further, the pest or weed control at 1000 g/ha stood at 0% in assay [7]; 0% in assay [8]; 0% in the assay with Setaria faberi (SETFA) [9]; 0% in assay [10]; 20% in assay [11]; 0% in the assay on Solanum nigrum (SOLNI) [12].
As to `COC(=O)c1nc(-c2c(C)n[nH]c2C)nc(N)c1Cl` [Compound 2-72, 4-Amino-5-chloro-2-(3,5-dimethylpyrazol-4-yl)-6-methoxycarbonyl pyrimidine], the pest or weed control at 250 g/ha (in [1]; in assay [2]; in the assay on Setaria faberi (SETFA) [3]; in [4]; in assay [5]; in the assay on Solanum nigrum (SOLNI) [6]) was 0% throughout. In addition, the pest or weed control at 250 g/ha (in assay [7]; in assay [8]; with Setaria faberi (SETFA) [9]; in [10]; in assay [11]; in the assay on Solanum nigrum (SOLNI) [12]) was 0% throughout.

These data come from patent US20110136666A1, “CHEMICAL COMPOUNDS” (SYNGENTA CROP PROTECTION, INC., priority 2008, published 2011).
